{"source": "ChEMBL document CHEMBL4706771", "about": "“Discovery of Orally Bioavailable Ligand Efficient Quinazolindiones as Potent and Selective Tankyrases Inhibitors” (ACS Med Chem Lett, 2021)", "key": {"[1]": {"test": "Clearance in Sprague-Dawley rat at 8.6 mg/kg, po or 0.5 mg/kg, iv", "type": "ADME, organism-based", "details": "in vivo"}, "[2]": {"test": "Mutagenicity in Salmonella typhimurium TA1537 by ames test", "type": "toxicity", "details": "salmonella enterica subsp. enterica serovar typhimurium"}, "[3]": {"test": "Oral bioavailability in Sprague-Dawley rat at 8.6 mg/kg", "type": "ADME, organism-based", "details": "in vivo"}, "[4]": {"test": "Volume of distribution in Beagle dog at 2 mg/kg, po or 1 mg/kg, iv", "type": "ADME, organism-based, Canis lupus familiaris", "details": "in vivo"}, "[5]": {"test": "Clearance in Beagle dog at 2 mg/kg, po or 1 mg/kg, iv", "type": "ADME, organism-based, Canis lupus familiaris", "details": "in vivo"}, "[6]": {"test": "Dose normalised AUC in Sprague-Dawley rat at 8.6 mg/kg, po", "type": "ADME, organism-based", "details": "in vivo"}, "[7]": {"test": "Half life in Sprague-Dawley rat at 8.6 mg/kg, po or 0.5 mg/kg, iv", "type": "ADME, organism-based", "details": "in vivo"}, "[8]": {"test": "Mutagenicity in Salmonella typhimurium TA1535 by ames test", "type": "toxicity", "details": "salmonella enterica subsp. enterica serovar typhimurium"}, "[9]": {"test": "Toxicity in Wistar Han rat assessed as decrease in skin elasticity at >= 100 mg/kg, po administered for 7 days and measured on day 7", "type": "organism-based", "details": "in vivo, 168 h, time 7 day"}, "[10]": {"test": "Half life in C57 mouse at 3 mg/kg, po or 1 mg/kg, iv", "type": "ADME, organism-based", "details": "in vivo"}, "[11]": {"test": "Toxicity in Wistar Han rat assessed as tolerability at 10 mg/kg, po administered for 7 days and measured on day 7", "type": "organism-based", "details": "in vivo, 168 h, time 7 day"}, "[12]": {"test": "Toxicity in Wistar Han rat assessed as abnormal mucoid fecal consistency at >= 100 mg/kg, po administered for 7 days and measured on day 7", "type": "organism-based", "details": "in vivo, 168 h, time 7 day"}, "[13]": {"test": "Inhibition of Wnt/beta-catenin (unknown origin) expressed in human HEK293 cells expressing MSRII transfected with DNA-LF2K incubated for 24 hrs by luciferase reporter gene assay", "details": "HEK293, 24 h"}, "[14]": {"test": "Volume of distribution in C57 mouse at 3 mg/kg, po or 1 mg/kg, iv", "type": "ADME, organism-based", "details": "in vivo"}, "[15]": {"biological_target": "Cytochrome P450 2C9 (Homo sapiens, UniProt P11712)", "sequence (P11712 whole entry)": "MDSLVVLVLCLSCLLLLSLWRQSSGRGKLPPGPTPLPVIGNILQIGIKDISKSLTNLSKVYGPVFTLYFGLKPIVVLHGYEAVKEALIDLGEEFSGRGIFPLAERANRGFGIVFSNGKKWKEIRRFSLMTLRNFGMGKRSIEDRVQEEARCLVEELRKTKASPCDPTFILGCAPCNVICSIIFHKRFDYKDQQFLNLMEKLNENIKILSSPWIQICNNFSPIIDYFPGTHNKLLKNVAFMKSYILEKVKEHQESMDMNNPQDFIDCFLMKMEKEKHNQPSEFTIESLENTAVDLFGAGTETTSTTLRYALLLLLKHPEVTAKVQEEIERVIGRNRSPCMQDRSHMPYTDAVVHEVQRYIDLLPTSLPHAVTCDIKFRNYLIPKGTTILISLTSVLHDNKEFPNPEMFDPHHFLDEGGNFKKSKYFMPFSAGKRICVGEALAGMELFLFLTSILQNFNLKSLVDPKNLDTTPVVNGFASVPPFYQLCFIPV", "test": "Inhibition of CYP2C9 (unknown origin)", "type": "ADME"}, "[16]": {"test": "Toxicity in Wistar Han rat assessed as reduction in body weight at 10 mg/kg, po administered for 7 days and measured on day 7", "type": "organism-based", "parameters": "scale not given: the % may be the effect or the level left", "details": "in vivo, 168 h, time 7 day"}, "[17]": {"test": "Mutagenicity in Escherichia coli WP2uvrA by ames test", "type": "toxicity"}, "[18]": {"test": "Toxicity in Wistar Han rat assessed as decrease in activity at >= 100 mg/kg, po administered for 7 days and measured on day 7", "type": "organism-based", "details": "in vivo, 168 h, time 7 day"}, "[19]": {"test_system": "NCI-H292", "test": "Antitumor activity against human NCI-H292 cells xenografted in BALB/c mouse assessed as maximal potency administered orally for 14 days and measured on day 14", "type": "functional", "details": "time 14 day"}, "[20]": {"test": "Dose normalised AUC in Beagle dog at 2 mg/kg, po", "type": "ADME, organism-based, Canis lupus familiaris", "details": "in vivo"}, "[21]": {"test": "Oral bioavailability in C57 mouse at 3 mg/kg", "type": "ADME, organism-based", "details": "in vivo"}, "[22]": {"test": "Toxicity in Wistar Han rat assessed as closed eyes at >= 100 mg/kg, po administered for 7 days and measured on day 7", "type": "organism-based", "details": "in vivo, 168 h, time 7 day"}, "[23]": {"test": "Toxicity in BALB/c mouse xenografted with human NCI-H292 cells assessed as tolerability at 10 to 30 mg/kg, po for 14 days and measured on day 14", "type": "organism-based", "details": "in vivo, 336 h, dose 10-30 mg/kg, time 14 day"}, "[24]": {"biological_target": "T1, Cytochrome P450 1A2 (Homo sapiens, UniProt P05177)", "T1 sequence (P05177 whole entry)": "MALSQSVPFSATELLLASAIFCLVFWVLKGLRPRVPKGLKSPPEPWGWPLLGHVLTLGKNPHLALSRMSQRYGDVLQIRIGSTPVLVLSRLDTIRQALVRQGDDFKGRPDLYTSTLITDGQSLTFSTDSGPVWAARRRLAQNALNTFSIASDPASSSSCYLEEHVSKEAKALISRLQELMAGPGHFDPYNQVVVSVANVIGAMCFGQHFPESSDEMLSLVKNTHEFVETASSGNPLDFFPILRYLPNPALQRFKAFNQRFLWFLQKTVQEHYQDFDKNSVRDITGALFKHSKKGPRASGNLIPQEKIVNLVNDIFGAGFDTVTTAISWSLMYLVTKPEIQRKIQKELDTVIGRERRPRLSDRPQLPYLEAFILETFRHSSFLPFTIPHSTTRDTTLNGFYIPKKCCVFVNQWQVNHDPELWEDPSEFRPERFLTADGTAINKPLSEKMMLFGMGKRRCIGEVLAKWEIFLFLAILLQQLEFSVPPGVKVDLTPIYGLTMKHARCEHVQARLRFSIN", "test": "Inhibition of CYP1A2 (unknown origin)", "type": "ADME"}, "[25]": {"biological_target": "Cytochrome P450 2D6 (Homo sapiens, UniProt P10635)", "sequence (P10635 whole entry)": "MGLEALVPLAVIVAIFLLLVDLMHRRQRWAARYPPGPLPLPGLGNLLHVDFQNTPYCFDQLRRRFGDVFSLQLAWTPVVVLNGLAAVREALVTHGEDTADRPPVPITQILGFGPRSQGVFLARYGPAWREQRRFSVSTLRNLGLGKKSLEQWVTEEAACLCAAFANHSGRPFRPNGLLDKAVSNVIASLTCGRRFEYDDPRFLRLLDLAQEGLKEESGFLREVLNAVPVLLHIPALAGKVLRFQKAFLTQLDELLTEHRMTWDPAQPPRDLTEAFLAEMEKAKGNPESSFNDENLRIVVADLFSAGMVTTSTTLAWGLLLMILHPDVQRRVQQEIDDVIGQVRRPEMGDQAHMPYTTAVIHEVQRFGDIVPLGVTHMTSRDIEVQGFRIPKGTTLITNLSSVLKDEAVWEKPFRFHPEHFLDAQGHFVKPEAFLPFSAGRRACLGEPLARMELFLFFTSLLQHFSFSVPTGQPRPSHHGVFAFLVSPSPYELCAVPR", "test": "Inhibition of CYP2D6 (unknown origin)", "type": "ADME"}, "[26]": {"test": "Toxicity in Wistar Han rat assessed as irregular breathing at >= 100 mg/kg, po administered for 7 days and measured on day 7", "type": "organism-based", "details": "in vivo, 168 h, time 7 day"}, "[27]": {"test": "Dose normalised AUC in C57 mouse at 3 mg/kg, po", "type": "ADME, organism-based", "details": "in vivo"}, "[28]": {"test": "Clearance in C57 mouse at 3 mg/kg, po or 1 mg/kg, iv", "type": "ADME, organism-based", "details": "in vivo"}}, "data": [{"smiles": "Cc1cccc2c1c(=O)n(C[C@H]1CC[C@H](C(=O)O)CC1)c(=O)n2Cc1cccc(C(F)(F)F)c1C#N", "values": [{"measurement": "clearance", "setting": "[1]", "value": 3.48, "unit": "mL/min/kg"}, {"measurement": "Activity", "setting": "[2]", "value": "Non-Toxic"}, {"measurement": "bioavailability", "setting": "[3]", "value": 133, "unit": "%"}, {"measurement": "Vd", "setting": "[4]", "value": 2.12, "unit": "L/kg"}, {"measurement": "clearance", "setting": "[5]", "value": 3.15, "unit": "mL/min/kg"}, {"measurement": "AUC/dose", "setting": "[6]", "value": 6651, "unit": "ng·h/mL"}, {"measurement": "half-life", "setting": "[7]", "value": 3.89, "unit": "h"}, {"measurement": "Activity", "setting": "[8]", "value": "Non-Toxic"}, {"measurement": "Activity", "setting": "[9]", "value": "Toxic"}, {"measurement": "half-life", "setting": "[10]", "value": 10.9, "unit": "h"}, {"measurement": "Activity", "setting": "[11]", "value": "Non-Toxic"}, {"measurement": "Activity", "setting": "[12]", "value": "Toxic"}, {"measurement": "IC50", "setting": "[13]", "value": 0.02, "unit": "µM"}, {"measurement": "Vd", "setting": "[14]", "value": 1.34, "unit": "L/kg"}, {"measurement": "IC50", "setting": "[15]", "value": 84, "unit": "µM"}, {"measurement": "Activity", "setting": "[16]", "value": 8, "unit": "%"}, {"measurement": "Activity", "setting": "[17]", "value": "Non-Toxic"}, {"measurement": "Activity", "setting": "[18]", "value": "Toxic"}, {"measurement": "ECmax", "setting": "[19]", "value": 10, "unit": "mg/kg"}, {"measurement": "AUC/dose", "setting": "[20]", "value": 2937, "unit": "ng·h/mL"}, {"measurement": "bioavailability", "setting": "[21]", "value": 37.1, "unit": "%"}, {"measurement": "Activity", "setting": "[22]", "value": "Toxic"}, {"measurement": "Activity", "setting": "[23]", "value": "Non-Toxic"}, {"measurement": "IC50", "setting": "[24]", "value": "> 100", "unit": "µM"}, {"measurement": "IC50", "setting": "[25]", "value": "> 100", "unit": "µM"}, {"measurement": "Activity", "setting": "[26]", "value": "Toxic"}, {"measurement": "AUC/dose", "setting": "[27]", "value": 5831, "unit": "ng·h/mL"}, {"measurement": "clearance", "setting": "[28]", "value": 1.44, "unit": "mL/min/kg"}]}]}
